≈ marks a conversion by molar mass, not a printed value. Calls of active or inactive are those of the source. The calls are words filed in the database; no cut-off is given here.
Columns and labels:
Nakaseomyces glabratus [1] = assay: Antifungal activity against fluconazole-resistant Candida glabrata 8535 assessed as fungal growth inhibition incubated for 48 hrs by microplate reader assay; type: functional
[2] = AUC (0-infinity) in ICR mouse at 2 mg/kg,iv measured upto 24 hrs by LC-MS/MS analysis; type: ADME, organism-based; design: dose 2 mg/kg, time < 24 hrs, route iv; conditions: in vivo
Nakaseomyces glabratus [3] = assay: Antifungal activity against fluconazole-resistant Candida glabrata 0161 assessed as inhibition of fungal mature biofilm formation at 0.25 to 64 ug/ml incubated for 24 hrs by XXT reduction menadione assay; type: functional, organism-based; conditions: dose 0.25-64 µg/ml
[4] = Cytotoxicity against human HUVEC cells incubated for 48 hrs by CCK-8 assay; type: toxicity, cell-based
Nakaseomyces glabratus [5] = assay: Synergistic antifungal activity against fluconazole-resistant Candida glabrata 0161 assessed as inhibition of fungal biofilm formation at 1 ug/ml incubated for 24 hrs in presence of fluconazole by XXT reduction menadione assay; type: functional
[6] = Volume of distribution at steady state in ICR mouse at 2 mg/kg,iv measured upto 24 hrs by LC-MS/MS analysis; type: ADME, organism-based; conditions: in vivo, read-out: Vdss
[7] = AUC (0-infinity) in ICR mouse at 10 mg/kg,po measured upto 24 hrs by LC-MS/MS analysis; type: ADME, organism-based; design: time < 24 hrs, dose 10 mg/kg, route po; conditions: in vivo
Nakaseomyces glabratus [8] = assay: Synergistic antifungal activity against fluconazole-resistant Candida glabrata 0161 assessed as downregulation of CDR2 gene expression at 4 ug/ml in presence of fluconazole by RT-PCR analysis; type: functional, organism-based; conditions: dose 4.0 µg/ml
[9] = Tmax in ICR mouse at 2 mg/kg,iv measured upto 24 hrs by LC-MS/MS analysis; type: ADME, organism-based; conditions: in vivo
Nakaseomyces glabratus [10] = assay: Antifungal activity against FLC-resistant Candida glabrata 0161 infected in cyclophosphamide immunosuppressed ICR mouse model assessed as inhibition of fungal growth in kidney at 40 mg/kg,ip administrated for 5 days; type: functional, organism-based; conditions: time 5.0 day
Nakaseomyces glabratus [11] = assay: Synergistic antifungal activity against fluconazole-resistant Candida glabrata 0161 assessed as inhibition of fungal growth at 2 to 16 ug/ml incubated for 48 hrs in presence of fluconazole by Spot plating assay; type: functional, organism-based; conditions: dose 2-16 µg/ml
Trichophyton rubrum = assay: Antifungal activity against Trichophyton rubrum assessed as fungal growth inhibition incubated for 48 hrs by microplate reader assay; type: functional
Nakaseomyces glabratus [12] = assay: Antifungal activity against FLC-resistant Candida glabrata 0161 infected in cyclophosphamide immunosuppressed ICR mouse model assessed as inhibition of fungal growth in kidney at 5 mg/kg,ip administrated for 5 days; type: functional, organism-based; conditions: time 5.0 day
Nakaseomyces glabratus [13] = assay: Synergistic antifungal activity against fluconazole-resistant Candida glabrata 0161 assessed as fungal growth inhibition incubated for 48 hrs in presence of fluconazole by time-growth curve assay; type: functional, organism-based
[14] = Inhibition of fluorescent probe FITC tagged PDR1-KIX domain (unknown origin) protein-protein interaction assessed as inhibition constant incubated for 2 hrs by fluorescence polarization binding assay
Nakaseomyces glabratus [15] = assay: Synergistic antifungal activity against fluconazole-resistant Candida glabrata 0161 assessed as inhibition of fungal mature biofilm formation at 1 to 64 ug/ml incubated for 24 hrs in presence of fluconazole by XXT reduction menadione assay; type: functional, organism-based; conditions: dose 1-64 µg/ml
Nakaseomyces glabratus [16] = assay: Antifungal activity against fluconazole-resistant Candida glabrata 9256 assessed as fungal growth inhibition incubated for 48 hrs by microplate reader assay; type: functional
[17] = Aqueous solubility of compound; type: physicochemical
Nakaseomyces glabratus [18] = assay: Synergistic antifungal activity against fluconazole-resistant Candida glabrata 0161 assessed as inhibition of Rhodamine 6G efflux at 1 to 8 ug/ml incubated for 25 hrs in presence of fluconazole by Rhodamine 6G staining based fluorescence assay; type: functional, organism-based; conditions: dose 1-8 µg/ml
Aspergillus fumigatus = assay: Antifungal activity against Aspergillus fumigatus 7544 assessed as fungal growth inhibition incubated for 48 hrs by microplate reader assay; type: functional
[19] = Oral bioavailability in ICR mouse at 10 mg/kg measured upto 24 hrs by LC-MS/MS analysis; type: ADME, organism-based; conditions: in vivo
Nakaseomyces glabratus [20] = assay: Antifungal activity against FLC-resistant Candida glabrata 0161 infected in cyclophosphamide immunosuppressed ICR mouse model assessed as pathological change in kidney at 5 mg/kg,ip administrated for 5 days by Hematoxylin and eosin staining based analysis; type: functional, organism-based; conditions: time 5.0 day
[Candida] auris = Antifungal activity against Candida auris 0030 assessed as fungal growth inhibition incubated for 48 hrs by microplate reader assay; type: functional; conditions: Candidozyma auris
Nakaseomyces glabratus [21] = assay: Antifungal activity against fluconazole-resistant Candida glabrata 0161 assessed as fungal growth inhibition incubated for 48 hrs by microplate reader assay; type: functional
[22] = Cmax in ICR mouse at 2 mg/kg,iv measured upto 24 hrs by LC-MS/MS analysis; type: ADME, organism-based; design: dose 2 mg/kg, time < 24 hrs, route iv; conditions: in vivo
Cryptococcus neoformans = assay: Antifungal activity against Cryptococcus neoformans H99 assessed as fungal growth inhibition incubated for 48 hrs by microplate reader assay; type: functional
[23] = AUC (0-t) in ICR mouse at 2 mg/kg,iv measured upto 24 hrs by LC-MS/MS analysis; type: ADME, organism-based; design: time < 24 hrs, dose 2 mg/kg, route iv; conditions: in vivo
Nakaseomyces glabratus [24] = assay: Antifungal activity against fluconazole-resistant Candida glabrata 0161 assessed as fluconazole fractional inhibitory concentration incubated for 48 hrs in presence of fluconazole by microplate reader assay; type: functional
Nakaseomyces glabratus [25] = assay: Antifungal activity against fluconazole-resistant Candida glabrata 0161 assessed as fungal growth inhibition at 4 ug/ml incubated for 48 hrs by time-growth curve assay; type: functional, organism-based; conditions: dose 4.0 µg/ml
Nakaseomyces glabratus [26] = assay: Antifungal activity against FLC-resistant Candida glabrata 0161 infected in cyclophosphamide immunosuppressed ICR mouse model assessed as inhibition of fungal growth in kidney at ip administration for 5 days; type: functional, organism-based; conditions: time 5.0 day
Nakaseomyces glabratus [27] = assay: Synergistic antifungal activity against fluconazole-resistant Candida glabrata 0161 assessed as fractional inhibitory concentration index incubated for 48 hrs in presence of fluconazole by checkerboard microdilution method; type: functional
Nakaseomyces glabratus [28] = assay: Synergistic antifungal activity against FLC-resistant Candida glabrata 0161 infected in cyclophosphamide immunosuppressed ICR mouse model assessed as inhibition of fungal growth in kidney at 5 mg/kg,ip administrated in presence of fluconazole for 5 days; type: functional, organism-based; conditions: time 5.0 day
[29] = Clearance in ICR mouse at 2 mg/kg,iv measured upto 24 hrs by LC-MS/MS analysis; type: ADME, organism-based; conditions: in vivo
Candida tropicalis = assay: Antifungal activity against Candida tropicalis 10186 assessed as fungal growth inhibition incubated for 48 hrs by microplate reader assay; type: functional
[30] = Half life in ICR mouse at 2 mg/kg,iv measured upto 24 hrs by LC-MS/MS analysis; type: ADME, organism-based; conditions: in vivo
Nakaseomyces glabratus [31] = assay: Synergistic antifungal activity against FLC-resistant Candida glabrata 0161 infected in cyclophosphamide immunosuppressed ICR mouse model assessed as reduction in kidney fungal infection at 5 mg/kg,ip administrated for 5 days in presence of fluconazole by Hematoxylin and eosin staining based analysis; type: functional, organism-based; conditions: time 5.0 day
[32] = Half life in ICR mouse at 10 mg/kg,po measured upto 24 hrs by LC-MS/MS analysis; type: ADME, organism-based; conditions: in vivo
Nakaseomyces glabratus [33] = assay: Antifungal activity against fluconazole-resistant Candida glabrata 0161 assessed as fractional inhibitory concentration incubated for 48 hrs in presence of fluconazole by microplate reader assay; type: functional
[34] = Cmax in ICR mouse at 10 mg/kg,po measured upto 24 hrs by LC-MS/MS analysis; type: ADME, organism-based; design: dose 10 mg/kg, time < 24 hrs, route po; conditions: in vivo
Nannizzia gypsea = assay: Antifungal activity against Microsporum gypseum assessed as fungal growth inhibition incubated for 48 hrs by microplate reader assay; type: functional

## Nc1cc(=O)n(C(=S)Nc2ccc3c(c2)CCC3)[nH]1
Nakaseomyces glabratus [1]
  MIC: 0.25 µg/mL (≈ 0.911 µM)
[2]
  AUC(0-inf): 491 ng·h/mL
Nakaseomyces glabratus [3]
  inhibition: inactive
[4]
  IC50 at 48 h: > 83 µM
Nakaseomyces glabratus [5]
  inhibition at 1 µg/mL: 33%
[6]
  Vd: 1.04 L/kg
[7]
  AUC(0-inf): 390 ng·h/mL
Nakaseomyces glabratus [8]
  Activity: Active
[9]
  Tmax: 4.8 min
Nakaseomyces glabratus [10]
  Activity: Active
Nakaseomyces glabratus [11]
  Activity: Active
Trichophyton rubrum
  MIC: 1 µg/mL (≈ 3.64 µM)
Nakaseomyces glabratus [12]
  Activity: Active
Nakaseomyces glabratus [13]
  Activity: Dose-Dependent Effect
[14]
  Ki: 11.7 µM
Nakaseomyces glabratus [15]
  inhibition: Active
Nakaseomyces glabratus [16]
  MIC: 0.25 µg/mL (≈ 0.911 µM)
[17]
  solubility: 22.1 µg/mL (≈ 80.4 µM)
Nakaseomyces glabratus [18]
  Activity: Active
Aspergillus fumigatus
  MIC: 16 µg/mL (≈ 58.3 µM)
[19]
  bioavailability: 15.9%
Nakaseomyces glabratus [20]
  Activity: Active
[Candida] auris
  MIC: 2 µg/mL (≈ 7.29 µM)
Nakaseomyces glabratus [21]
  MIC: 0.25 µg/mL (≈ 0.911 µM)
[22]
  Cmax: 1520 ng/mL
Cryptococcus neoformans
  MIC: 0.063 µg/mL (≈ 0.23 µM)
[23]
  AUC(0-t) at 24 h: 489 ng·h/mL
Nakaseomyces glabratus [24]
  fluconazole MIC in combination: 1 µg/mL
Nakaseomyces glabratus [25]
  Activity: Active
Nakaseomyces glabratus [26]
  Activity: Dose-Dependent Effect
Nakaseomyces glabratus [27]
  fractional inhibitory concentration index (FICI): 0.28
Nakaseomyces glabratus [28]
  Activity: Active
[29]
  clearance: 68.6 mL/min/kg
Candida tropicalis
  MIC: 4 µg/mL (≈ 14.6 µM)
[30]
  half-life: 51.6 min
Nakaseomyces glabratus [31]
  Activity: Active
[32]
  half-life: 36 min
Nakaseomyces glabratus [33]
  FIC: 0.063 µg/mL
[34]
  Cmax: 875 ng/mL
Nannizzia gypsea
  MIC: 1 µg/mL (≈ 3.64 µM)

— ChEMBL document CHEMBL5321270, “Discovery of Pyrazolone Carbothioamide Derivatives as Inhibitors of the Pdr1-KIX Interaction for Combinational Treatment of Azole-Resistant Candidiasis” (J Med Chem, 2023)
